Each structure is given as a SMILES string.

Chain of human PDE10A2 (Q9Y233 267-1055): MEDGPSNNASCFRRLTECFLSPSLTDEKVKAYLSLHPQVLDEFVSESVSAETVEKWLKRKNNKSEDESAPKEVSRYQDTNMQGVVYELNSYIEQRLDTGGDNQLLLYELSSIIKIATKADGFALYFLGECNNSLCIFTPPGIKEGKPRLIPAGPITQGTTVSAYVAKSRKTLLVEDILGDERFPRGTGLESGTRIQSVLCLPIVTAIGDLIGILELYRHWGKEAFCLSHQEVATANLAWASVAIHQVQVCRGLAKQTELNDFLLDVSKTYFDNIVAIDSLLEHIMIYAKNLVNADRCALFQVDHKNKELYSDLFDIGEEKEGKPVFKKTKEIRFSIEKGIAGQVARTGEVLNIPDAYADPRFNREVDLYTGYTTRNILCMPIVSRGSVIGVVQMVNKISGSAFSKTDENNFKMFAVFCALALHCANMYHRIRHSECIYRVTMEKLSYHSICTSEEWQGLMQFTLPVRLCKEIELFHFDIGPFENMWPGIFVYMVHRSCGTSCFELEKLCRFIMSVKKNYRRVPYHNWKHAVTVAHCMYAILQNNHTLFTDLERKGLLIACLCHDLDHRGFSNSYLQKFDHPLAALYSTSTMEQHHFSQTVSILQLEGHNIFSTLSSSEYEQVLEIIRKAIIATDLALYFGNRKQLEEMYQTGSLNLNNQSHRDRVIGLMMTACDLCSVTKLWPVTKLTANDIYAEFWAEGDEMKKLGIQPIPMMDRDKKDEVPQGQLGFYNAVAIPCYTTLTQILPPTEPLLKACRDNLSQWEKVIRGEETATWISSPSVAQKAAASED

In the assay the target is human PDE10A2 (Homo sapiens (Human), UniProt Q9Y233). As to the kind of experiment: PDE10 fluorescence polarization (IMAP FP) inhibition assay. It is filed as biochemical. As to conditions: FAM-labeled cAMP 50 nM, room temperature, read-out: PDE10a Ki. The protocol:
The activity of the compounds in accordance with the present invention as PDE10 inhibitors may be readily determined without undue experimentation using a fluorescence polarization (FP) methodology that is well known in the art (Huang, W., et al., J. Biomol Screen, 2002, 7: 215).
In a typical experiment the PDE10 inhibitory activity of the compounds of the present invention was determined in accordance with the following experimental method. PDE10A2 was amplified from human fetal brain cDNA (Clontech, Mountain View, Calif.) using a forward primer corresponding to nucleotides 56-77 of human PDE10A2 (Accession No. AF127480, Genbank Identifier 4894716), containing a Kozak consensus sequence, and a reverse primer corresponding to nucleotides 2406-2413 of human PDE10A2 (Accession No. AF127480, Genbank Identifier 4894716). Amplification with Easy-A polymerase (Stratagene, La Jolla, Calif.) was 95° C. for 2 minutes followed by thirty three cycles of 95° C. for 40 seconds, 55° C. for 30 seconds, and 72° C. for 2 minutes 48 seconds. Final extension was 72° C. for 7 minutes. The PCR product was TA cloned into pcDNA3.2-TOPO (Invitrogen, Carlsbad, Calif.) according to standard protocol. AD293 cells with 70-80% confluency were transiently transfected with human PDE10A2/pcDNA3.2-TOPO using Lipofectamine 2000 according to manufacturer specifications (Invitrogen, Carlsbad, Calif.). Cells were harvested 48 hours post-transfection and lysed by sonication (setting 3, 10×5 sec pulses) in a buffer containing 20 mM HEPES, 1 mM EDTA and protease inhibitor cocktail (Roche). Lysate was collected by centrifugation at 75,000×g for 20 minutes. Supernatant containing the cytoplasmic fraction was used for evaluation of PDE10A2 activity. The fluorescence polarization assay for cyclic nucleotide phosphodiesterases was performed using an IMAP® FP kit supplied by Molecular Devices, Sunnyvale, Calif. (product # R8139). IMAP® technology has been applied previously to phosphodiesterase assays (Huang, W., et al., J. Biomol Screen, 2002, 7: 215). Assays were performed at room temperature in 384-well microtiter plates with an incubation volume of 20.2 μL. Solutions of test compounds were prepared in DMSO and serially diluted with DMSO to yield 8 μL of each of 10 solutions differing by 3-fold in concentration, at 32 serial dilutions per plate. 100% inhibition is determined using a known PDE10 inhibitor, which can be any compound that is present at 5,000 times its Ki value in the assay described as follows, such as papaverine (see Siuciak, et al. Neuropharmacology (2006) 51:386-396; Becker, et al. Behav Brain Res (2008) 186(2):155-60; Threlfell, et al., J Pharmacol Exp Ther (2009) 328(3):785-795), 2-{4-[pyridin-4-yl-1-(2,2,2-trifluoroethyl)-1H-pyrazol-3-yl]phenoxymethyl}quinoline succinic acid or 2-[4-(1-methyl-4-pyridin-4-yl-1H-pyrazol-3-yl)-phenoxymethyl]quinoline succinic acid (see Schmidt, et al. J Pharmacol Exp Ther (2008) 325:681-690; Threlfall, et al., J Pharmacol Exp Ther (2009) 328(3): 785-795). 0% of inhibition is determined by using DMSO (1% final concentrations).
A Labcyte Echo 555 (Labcyte, Sunnyvale, Calif.) is used to dispense 200 nL from each well of the titration plate to the 384 well assay plate. A solution of enzyme (1/1600 dilution from aliquots; sufficient to produce 20% substrate conversion) and a separate solution of FAM-labeled cAMP PDE from Molecular Devices (product # R7506), at a final concentration of 50 nM are made in the assay buffer (10 mM Tris HCl, pH 7.2, 10 mM MgCl2, 0.05% NaN3 0.01% Tween-20, and 1 mM DTT). The enzyme and the substrate are then added to the assay plates in two consecutive additions of 10 μL, and then shaken to mix. The reaction is allowed to proceed at room temperature for 30 minutes. A binding solution is then made from the kit components, comprised of 80% Solution A, 20% Solution B and binding reagent at a volume of 1600 the total binding solution. […]
On to `Cc1nc([C@@H]2C[C@H]2c2nc3ccccc3n2CCN(C)C)cc(-n2nc(C)nc2C)n1` (stereo in doubt) [Cpd 72, 2-(2-{2-[6-(3,5-dimethyl-1H-1,2,4-triazol-1-yl)-2-methylpyrimidin-4-yl]cyclopropyl}-1H-benzimidazol-1-yl)-N,N-dimethylethanamine], for which the inhibitory constant (Ki) – broadly, a measure of affinity in units of concentration, obtained from inhibition or displacement – worked out at 14.2 nM. `Cc1nc([C@@H]2C[C@H]2c2nc3ccccc3n2Cc2ccccn2)cc(-n2nc(C)nc2C)n1` (stereo in doubt) [Cpd 73, 2-{2-[6-(3,5-dimethyl-1H-1,2,4-triazol-1-yl)-2-methylpyrimidin-4-yl]cyclopropyl}-1-(pyridin-2-ylmethyl)-1H-benzimidazole]: the inhibition constant Ki came out at 13.1 nM. The result for `Cc1nc([C@@H]2C[C@H]2c2nc3ccccc3n2Cc2cccnc2)cc(-n2nc(C)nc2C)n1` (stereo in doubt) [Cpd 74, 2-{2-[6-(3,5-dimethyl-1H-1,2,4-triazol-1-yl)-2-methylpyrimidin-4-yl]cyclopropyl}-1-(pyridin-3-ylmethyl)-1H-benzimidazole] reads 9.9 nM; that for `Cc1nc([C@@H]2C[C@H]2c2nc3ccccc3n2CC2CCCO2)cc(-n2nc(C)nc2C)n1` (stereo in doubt) [Cpd 75, 2-{2-[6-(3,5-dimethyl-1H-1,2,4-triazol-1-yl)-2-methylpyrimidin-4-yl]cyclopropyl}-1-(tetrahydrofuran-2-ylmethyl)-1H-benzimidazole], 13 nM.

For `Cc1nc([C@@H]2C[C@H]2c2nc3ccccc3n2Cc2ccncc2)cc(-n2nc(C)nc2C)n1` (stereo in doubt) [Cpd 76, 2-{2-[6-(3,5-dimethyl-1H-1,2,4-triazol-1-yl)-2-methylpyrimidin-4-yl]cyclopropyl}-1-(pyridin-4-ylmethyl)-1H-benzimidazole], the Ki was 18.3 nM. For the compound `Cc1nc([C@H]2C[C@@H]2c2nc3ccccc3n2C)cc(-n2nc(C)nc2O)n1` (stereo in doubt) [Cpd 78, 3-methyl-1-{2-methyl-6-[2-(1-methyl-1H-benzimidazol-2-yl)cyclopropyl]pyrimidin-4-yl}-1H-1,2,4-triazol-5-ol], the inhibition constant (Ki) is greater than 75 nM. As for `Cc1nc([C@H]2C[C@@H]2c2nc3ccccc3n2C)cc(-n2nc(C)nc2C2CCCCC2)n1` (stereo in doubt) [Cpd 79, 2-{2-[6-(5-cyclohexyl-3-methyl-1H-1,2,4-triazol-1-yl)-2-methylpyrimidin-4-yl]cyclopropyl}-1-methyl-1H-benzimidazole], the inhibition constant (Ki) was found to be 2.5 nM.

Turning to `Cc1nc([C@H]2C[C@@H]2c2nc3ncccc3n2C)cc(-n2nc(C)nc2C)n1` (stereo in doubt) [Cpd 80, 2-{2-[6-(3,5-dimethyl-1H-1,2,4-triazol-1-yl)-2-methylpyrimidin-4-yl]cyclopropyl}-1-methyl-1H-imidazo[4,5-b]pyridine], the inhibition constant (Ki) is greater than 75 nM.

Take `Cc1nc([C@H]2C[C@@H]2c2nc3ccccc3n2C)cc(-n2nc(C)nc2-c2cccnc2)n1` (stereo in doubt) [Cpd 81, 1-methyl-2-{2-[2-methyl-6-(3-methyl-5-pyridin-3-yl-1H-1,2,4-triazol-1-yl)pyrimidin-4-yl]cyclopropyl}-1H-benzimidazole]: the Ki stood at 12.8 nM.

`Cc1nc([C@H]2C[C@@H]2c2nc3ccccc3n2C)cc(-n2nc(C)nc2-c2ccccn2)n1` (stereo in doubt) [Cpd 82, 1-methyl-2-{2-[2-methyl-6-(3-methyl-5-pyridin-2-yl-1H-1,2,4-triazol-1-yl)pyrimidin-4-yl]cyclopropyl}-1H-benzimidazole]: the inhibition constant Ki is greater than 75 nM.

`CCc1nc(C)nn1-c1cc([C@H]2C[C@@H]2c2nc3ccccc3n2C)nc(C)n1` (stereo in doubt) [Cpd 83, 2-{2-[6-(5-ethyl-3-methyl-1H-1,2,4-triazol-1-yl)-2-methylpyrimidin-4-yl]cyclopropyl}-1-methyl-1H-benzimidazole]: the inhibitory constant (Ki) is 0.96 nM. On to `Cc1nc([C@H]2C[C@@H]2c2nc3ccccc3n2C)cc(-n2nc(C)nc2C2CCN(C(=O)OC(C)(C)C)CC2)n1` (stereo in doubt) [Cpd 84, tert-butyl 4-(3-methyl-1-{2-methyl-6-[2-(1-methyl-1H-benzimidazol-2-yl)cyclopropyl]pyrimidin-4-yl}-1H-1,2,4-triazol-5-yl)piperidine-1-carboxylate], for which the inhibitory constant (Ki) was greater than 75 nM. The result for `Cc1nc([C@H]2C[C@@H]2c2nc3ccccc3n2C)cc(-n2nc(C)nc2C2CC2)n1` (stereo in doubt) [Cpd 85, 2-{2-[6-(5-cyclopropyl-3-methyl-1H-1,2,4-triazol-1-yl)-2-methylpyrimidin-4-yl]cyclopropyl}-1-methyl-1H-benzimidazole] reads 2.9 nM; that for `COCc1nc(C)nn1-c1cc([C@H]2C[C@@H]2c2nc3ccccc3n2C)nc(C)n1` (stereo in doubt) [Cpd 86, 2-[2-{6-[5-(methoxymethyl)-3-methyl-1H-1,2,4-triazol-1-yl]-2-methylpyrimidin-4-yl}cyclopropyl]-1-methyl-1H-benzimidazole], 1.4 nM; that for `Cc1nc([C@H]2C[C@@H]2c2nc3ccccc3n2C)cc(-n2nc(C)nc2CN(C)C)n1` (stereo in doubt) [Cpd 87, N,N-dimethyl-1-(3-methyl-1-{2-methyl-6-[2-(1-methyl-1H-benzimidazol-2-yl)cyclopropyl]pyrimidin-4-yl}-1H-1,2,4-triazol-5-yl)methanamine], 10.6 nM.

On to `COc1ccc(Cc2nc(C)nn2-c2cc(C#Cc3ccc4ccccc4n3)nc(C)n2)cc1OC` [Cpd 2, 2-((6-(5-(3,4-dimethoxybenzyl)-3-methyl-1H-1,2,4-triazol-1-yl)-2-methylpyrimidin-4-yl)ethynyl)quinoline], for which the Ki worked out at 0.023 nM. Consider `COc1ccc(Cc2nc(C)nn2-c2cc(CCc3ccc4ccccc4n3)nc(C)n2)cc1OC` [Cpd 3, 2-(2-(6-(5-(3,4-dimethoxybenzyl)-3-methyl-1H-1,2,4-triazol-1-yl)-2-methylpyrimidin-4-yl)ethyl)quinoline], for which the inhibitory constant (Ki) amounted to 0.004 nM. In the case of `COc1ccc(Cc2nc(C)nn2-c2cc(CCc3ccc(C)cn3)nc(C)n2)cc1OC` [Cpd 5, 4-(5-(3,4-dimethoxybenzyl)-3-methyl-1H-1,2,4-triazol-1-yl)-2-methyl-6-(2-(5-methylpyridin-2-yl)ethyl)pyrimidine], the Ki worked out at 0.14 nM. The value for `COc1ccc(Cc2nc(C)nn2-c2cc(C#Cc3ccc4ccccc4n3)nc(C)n2)nc1OC` [Cpd 7, 2-((6-(5-((5,6-dimethoxypyridin-2-yl)methyl)-3-methyl-1H-1,2,4-triazol-1-yl)-2-methylpyrimidin-4-yl)ethynyl)quinoline] was 0.073 nM; that for `COc1ccc(Cc2nc(C)nn2-c2cc(CCc3ccc4ccccc4n3)nc(C)n2)nc1OC` [Cpd 8, 2-(2-(6-(5-((5,6-dimethoxypyridin-2-yl)methyl)-3-methyl-1H-1,2,4-triazol-1-yl)-2-methylpyrimidin-4-yl)ethyl)quinoline] was 0.028 nM. The value for `Cc1nc(OCc2ccc3ccccc3n2)cc(-n2nc(C)nc2Cc2nc(C)sc2C)n1` [Cpd 9, 2,5-dimethyl-4-((3-methyl-1-(2-methyl-6-(quinolin-2-ylmethoxy)pyrimidin-4-yl)-1H-1,2,4-triazol-5-yl)methyl)thiazole] was 62 nM; that for `COc1ccc(Cc2nc(C)nn2-c2cc(/C=C/c3ccc4ncccc4n3)nc(C)n2)cc1OC` [Cpd 13, (E)-2-(2-(6-(5-(3,4-dimethoxybenzyl)-3-methyl-1H-1,2,4-triazol-1-yl)-2-methylpyrimidin-4-yl)vinyl)-1,5-naphthyridine] was 0.01 nM.
